# Measurements from US20160008470A1, “STORAGE-STABLE COMPOSITIONS OF GLYCEROL MONOALKYL ETHERS” (AIR LIQUIDE SANTE (INTERNATIONAL), priority 2000, published 2016).
# Where a name gives a salt, the structure may show the parent alone.
# Key:
# [1] = Merckoquant peroxide test (ppm of H2O2) during storage at room temperature; details: for stabilizing effect: 0.05% by weight of the antioxidant; for stabilization of the glycerol monoalkyl ethers over a long period (peroxides, neck-in effect): added to Sensiva SC 50, storage at room temperature, Table 1; for ppm of H2O2: storage at room temperature
# Method: The data in “ppm of H2O2” refer to the peroxide determination using Merckoquant® peroxide test analysis strips. This semiquantitative method for determining peroxide was carried out as follows: • About 0.5 g of the sample to be investigated is placed in a test tube and treated with the same amount of demineralized water. The two phases are mixed by shaking, and a Merckoquant® peroxide test analysis strip is dipped in for one second. The damp strip is removed from the liquid and the peroxide content is read off after 15 seconds using the reference scale and noted. If the peroxide content is too high, the amount is doubled with demineralized water, again shaken etc., until a reading is possible using the reference scale. The value obtained is back-calculated using the dilution.
# (§2) Following preparation of the samples, the value for ppm of H2O2 and the pH were determined at regular intervals.
# [2] = Peroxide number (PON) by titration with sodium thiosulphate; assay type: physicochemical; details: for peroxide number as a function of time: Example 2, salt solution added to Sensiva SC 50
# Method: The peroxide number (PON) gives the amount peroxide in milliequivalents of active oxygen which is present in 1000 g of substance, determined in accordance with the method below. • 5.00 g of substance are weighed into a 250 ml Erlenmeyer flask with ground-glass stopper and dissolved in 30 ml of a mixture of 2 parts by volume of chloroform R and 3 parts by volume of acetic acid 98% R with shaking. […] Following the addition of 5 ml of starch solution R, the titration is continued with vigorous shaking until the blue coloration disappears (n1 ml of 0.01 N sodium thiosulphate solution). A control experiment is carried out under the same conditions (n2 ml of 0.01 N sodium thiosulphate solution). For this, at most 0.1 ml of 0.01 N sodium thiosulphate solution must be consumed.
# The peroxide number is calculated as follows: […]
# where m is the initial weight of the substance in grams.
# The method is explained in more detail in DAB 9-Kornrnentar [German Pharmacopoeia 9 Commentary] (K. Hartke, E. Mutschler, Editor, Wissenschaftliche Verlagsgesellschaft mbH Stuttgart, 9th edition 1986).
# (§1) The peroxide number of compositions of Sensiva® SC 50 and Lipacide e8G salts was compared with the stability of mixtures of Sensiva® SC 50 and other 30 salts.
# [3] = Appearance of the storage bottle (neck-in effect); assay type: physicochemical; details: for Appearance of the bottle: Example 1, storage at room temperature
# Method: as §2
# Hazen colour number = assay type: physicochemical
# [4] = Appearance of the composition; assay type: physicochemical
# Text: n.c.=no change, d.=days, m.=months, w.=weeks, y.=years, n.d.=not detectable, cl=clear, c=colourless, kr=crystals, yl=yellowish, S.=start of the investigation.
# as §1
# [5] = pH of 50% strength slurry in demineralized water, Merck pH indicator strips; assay type: physicochemical; details: storage at room temperature
# Text: The pH of the anhydrous solutions is given as the value which a 50% strength slurry of the respective anhydrous solution in demineralized water has, determined using Merck® pH indicator strips.
# [6] = Example 2, start of the investigation
# [7] = Example 2, after storage, time not printed (line below the 2 y. 2 m. lines)
structure (smiles),measurement,setting,value
"Cc1c(C)c2c(c(C)c1O)CC[C@@](C)(CCC[C@H](C)CCC[C@H](C)CCCC(C)C)O2 [vitamin E, Alpha-tocopherol]",stabilizing effect,[1],exhibit the stabilizing effect
same,"stabilization of the glycerol monoalkyl ethers over a long period (peroxides, neck-in effect)",[1],stabilize the glycerol monoalkyl ethers over a long period
"COc1ccc(O)c(C(C)(C)C)c1 [BHA, 3-tert-butyl-4-hydroxyanisole]",stabilizing effect,[1],exhibit the stabilizing effect
same,"stabilization of the glycerol monoalkyl ethers over a long period (peroxides, neck-in effect)",[1],stabilize the glycerol monoalkyl ethers over a long period
"Cc1cc(C(C)(C)C)c(O)c(C(C)(C)C)c1 [BHT, 2,6-di-tert-butyl-p-cresol]",stabilizing effect,[1],exhibit the stabilizing effect
same,"stabilization of the glycerol monoalkyl ethers over a long period (peroxides, neck-in effect)",[1],stabilize the glycerol monoalkyl ethers over a long period
O=C([O-])CC(O)(CC(=O)[O-])C(=O)[O-].[Na+].[Na+].[Na+] [sodium citrate],peroxide number as a function of time,[2],could not be achieved
O=S(=O)([O-])[O-].[Na+].[Na+] [sodium sulphate],peroxide number as a function of time,[2],could not be achieved
"CCCCCCCCCCCCCCCC(=O)OC[C@H](O)[C@H]1OC(=O)C(O)=C1O [ascorbyl palmitate, 6-0-palmitoyl-L-ascorbic acid]",effect on stabilization of the glycerol monoalkyl ether by vitamin E,[1]; Experiments N and O,inhibit its stabilization by vitamin E
same,"stabilization of the glycerol monoalkyl ethers over a long period (peroxides, neck-in effect)",[1],does not stabilize the glycerol monoalkyl ethers
CC(C)(CO)[C@@H](O)C(=O)NCCCO [dexpanthenol],stabilizing effect,[1],exhibit the stabilizing effect
same,"stabilization of the glycerol monoalkyl ethers over a long period (peroxides, neck-in effect)",[1],stabilize the glycerol monoalkyl ethers over a long period
"CCCCC(CC)COCC(O)CO (stereo not shown) [Experiment A, 3-[(2-ethylhexyl)oxy]-1,2-propanediol]",PON 2 y. 11 m.,"[2]; Example 1, storage at room temperature, 2 y. 11 m., n.d.=not detectable",25.3 milliequivalents of active oxy
same,PONS.,[2]; [6],10 milliequivalents of active oxy
same,PON,"[2]; Example 2, storage 2 y. 2 m.",5-10 milliequivalents of active oxy
same,PON,"[2]; Example 2, storage 6 m.",20 milliequivalents of active oxy
same,PON,"[2]; Example 2, storage 6 w.",25 milliequivalents of active oxy
same,PON,"[2]; Example 2, storage 11 w.",25 milliequivalents of active oxy
same,PON,"[2]; Example 2, storage 4 d.",10 milliequivalents of active oxy
same,PON,"[2]; Example 2, storage 9 d.",10-25 milliequivalents of active oxy
same,development of the peroxide content in stored preparations,"[1]; Table 1, storage",chaotic development of the peroxide number
same,ppm of H2O2,"[1]; 2 m., listed as A",2-5 ppm
same,ppm of H2O2,"[1]; 2 w., listed as A",2-5 ppm
same,ppm of H2O2,"[1]; 2 y., listed as A",10-25 ppm
same,ppm of H2O2,"[1]; 3 m., listed as A",2-5 ppm
same,ppm of H2O2,"[1]; 4 m., listed as A",5 ppm
same,ppm of H2O2,"[1]; 5 m., listed as A",5 ppm
same,ppm of H2O2,"[1]; 6.5 m., listed as A",5 ppm
same,ppm of H2O2,"[1]; 7 w., listed as A",2-5 ppm
same,ppm of H2O2,"[1]; 8 w., listed as A",2-5 ppm
same,ppm of H2O2,"[1]; 8.5 m., listed as A",5 ppm
same,ppm of H2O2,"[1]; 11 m., listed as A",10 ppm
same,ppm of H2O2,"[1]; 7 d., listed as A",2 ppm
same,ppm of H2O2,"[1]; 9 d., listed as A",2 ppm
same,Appearance of the bottle,"[3]; 2 y. 11 m., listed as A",consider-
same,Appearance of the bottle,"[3]; 2 y., listed as A",neck in
same,PE bottle,"[3]; Example 2, storage 2 y. 2 m.",considerable
same,Hazen colour number,"Hazen colour number; Example 1, storage at room temperature, 8 w.",<5
same,Hazen colour number,Hazen colour number; [7],0
same,Appearance,[4]; [7],cl c
same,Appearance S.,[4]; [6],cl c
"CCCCCCCC(=O)NCC(=O)O [Lipacide C8G sodium salts, N-octanoylglycine]",peroxide number as a function of time,[2],the peroxide number decreases as a function of time
same,neck-in effect,"[3]; Example 2, salt solution added to Sensiva SC 50",the neck-in effect is avoided
"CCCCC(CC)COCC(O)CO (stereo not shown) [Experiment A(Alu), 3-[(2-ethylhexyl)oxy]-1,2-propanediol]",PON S.,"[2]; Example 1, start of the investigation",0.5 milliequivalents of active oxy
same,ppm of H2O2,[1]; 1 y.,10 ppm
same,ppm of H2O2,"[1]; 2 m., listed as A(Alu)",25 ppm
same,ppm of H2O2,"[1]; 2 w., listed as A(Alu)",2 ppm
same,ppm of H2O2,"[1]; 2 y., listed as A(Alu)",0 ppm
same,ppm of H2O2,"[1]; 3 m., listed as A(Alu)",25-50 ppm
same,ppm of H2O2,[1]; 3 w.,2-5 ppm
same,ppm of H2O2,"[1]; 4 m., listed as A(Alu)",25-50 ppm
same,ppm of H2O2,[1]; 4 w.,2-5 ppm
same,ppm of H2O2,"[1]; 5 m., listed as A(Alu)",50 ppm
same,ppm of H2O2,[1]; 5 w.,2-5 ppm
same,ppm of H2O2,[1]; 6 w.,2-5 ppm
same,ppm of H2O2,"[1]; 6.5 m., listed as A(Alu)",50 ppm
same,ppm of H2O2,"[1]; 7 w., listed as A(Alu)",5 ppm
same,ppm of H2O2,"[1]; 8 w., listed as A(Alu)",5 ppm
same,ppm of H2O2,"[1]; 8.5 m., listed as A(Alu)",25-50 ppm
same,ppm of H2O2,"[1]; 11 m., listed as A(Alu)",10-25 ppm
same,ppm of H2O2,[1]; 14 m.,10 ppm
same,ppm of H2O2,[1]; 16 m.,10 ppm
same,ppm of H2O2,"[1]; 7 d., listed as A(Alu)",0.5 ppm
same,ppm of H2O2,"[1]; 9 d., listed as A(Alu)",0.5-1 ppm
same,pH,[5]; 2 m.,3
same,pH,[5]; 2 w.,3
same,pH,[5]; 3 w.,3
same,pH,[5]; 4 w.,3
same,pH,[5]; 5 w.,3
same,pH,[5]; 6 w.,3
same,pH,[5]; 7 w.,3
same,pH,[5]; 8 w.,3
same,pH,[5]; 7 d.,3
same,pH,[5]; 9 d.,3
same,Appearance of the bottle,"[3]; 2 y. 11 m., listed as A(Alu)",n.c.
same,Appearance of the bottle,"[3]; 2 y., listed as A(Alu)",n.c.
